Results published in US7871978B2, “Bone tropic peptides” (University of Virginia Patent Foundation, priority 2004, dated 2011).
Entries after “also recorded” stand apart in the source; their conditions may differ.

Tests used:
[1] = tested on: Membrane and cytosol fractions from bovine aortic endothelial cells; test: Affinity chromatography of BAEC fractions on immobilized peptide; assay type: binding; set-up: key to Identification of binding partners by affinity chromatography: BAEC: ✓: Check marks indicate positive binding observed with FITC; −: a dash indicates a negative result; conditions: cell lysates
Protocol: (§1) Membrane and cytosol fractions from human bone marrow endothelial cells and bovine aortic endothelial cells were prepared and used to identify the components from within these fractions that bind to the peptides using affinity chromatography). […] Cell surface nucleolin is present at higher concentrations in actively dividing cells and is down regulated in cells when they become quiescent. Nucleolin is the apparent cell surface receptor of E-coli intimin-gamma. Cell bound intimin has been proposed to trigger a host cell response similar to the extension of filipodia when cells bind to laminin. […] Table 3 provides a summary of peptide-binding partners (putative receptors) identified by affinity chromatography of cell lysates.

[2] = tested on: Membrane and cytosol fractions from human bone marrow endothelial cells; test: Affinity chromatography of HBME fractions on immobilized peptide; assay type: binding; set-up: key to Identification of binding partners by affinity chromatography: HBME: ✓: Check marks indicate positive binding observed with FITC; −: a dash indicates a negative result; conditions: for Identification of binding partners by affinity chromatography: HBME: cell lysates
Protocol: as §1
Peptide Affinity Column Chromatography: Peptides identified from the phage display experiments in mouse bone and bone marrow were synthesized with an additional three-residue glycine linker and an N-terminal lysine residue. The lysine residue was used to specifically link the peptides to a support. Cell membranes from BMECs were solubilized with triton X-100. The solubilized proteins were passed through the peptide affinity column (total volume, 500 μL) followed by extensive washes with buffer. Retained proteins were eluted either with 100 mM solution of the same peptide as that immobilized on the column or with a wash of 0.1 N HCl-Glycine, pH 2.2. The eluates were analyzed by SDS PAGE and proteins observed in the gels were identified by LC/MS/MS.

[3] = tested on: D1 cells; test: Peptide binding to D1 bone marrow mesenchymal cells; conditions: for Binding to D1 cells: FIG. 4; for Binding to cells from the skeleton in vitro: mesenchymal cells from bone marrow (D1), or human bone marrow endothelial cells, avidin-FITC probe
Excerpt: (§2) Bone marrow cells isolated from mouse femur were lifted with ethylenediaminetetraacetic acid (EDTA) and trypsin, resuspended, and allowed to attach on fibronectin-coated chamber slides for Avidin-FITC staining. […] The D1 cell is a multipotential mesenchymal stem-like line that was isolated from bone marrow and shown to have the characteristics of osteoprogenitor cells. This cell line has been well established and used successfully in several in vitro and in vivo studies in our laboratory. Peptide binding to human bone marrow endothelial cells (HBME) and bovine aortic endothelial cells (BAEC) in culture was also tested using the same procedure.
The peptides were ranked based on the frequency with which they occurred in the plaques from which DNA was prepared and sequenced. Four of the sequences (L13, L19, R1, and R3) were synthesized as biotinylated peptide or as the control non biotinylated version of the sequence. […] The cells used in these experiments were mesenchymal cells from bone marrow (D1), or human bone marrow endothelial cells. An avidin-FITC probe detected the biotinylated peptide in areas of the cells in culture representing either extrusions from the cells or at the end of cell processes; structures reminiscent of adhesion plaques or footprints.

[4] = tested on: prostate cancer cells (CaP); test: Prostate cancer (CaP) cell adhesion to BMEC, cell line not distinguished; assay type: cell-based; conditions: for Effect on CaP cell adhesion to BMEC: LNCaP compared to C4-2, FIG. 8, preliminary results
Protocol: FIG. 8 is a graphic representation of the effects of various peptides on altering cellular adhesion to BMEC cells in vitro. LNCaP cells were compared directly to C4-2 cells for the ability of specific phage-derived peptides to alter cellular adhesion to BMEC cells in vitro. Adhesion was measured at […]. C=control (no peptide). The ordinate represents percent of acid precipitable counts bound and the abscissa indicated the cells treated and the peptides used.
The phage-derived bone-targeting peptides isolated by biopanning were tested for their ability to alter the adhesion of prostate cancer cells to a human bone marrow endothelial cell line (see FIG. 8). In this assay, LNCaP cells were compared directly to the more metastatic, bone colonizing derivative, C4-2.
This observation will be examined further and exploited by the aims of this proposal to identify the binding partners of nucleolin in prostate cancer cells as well as to investigate bone tropic peptides as potential inhibitors of prostate cancer metastasis.

[5] = tested on: Bone marrow cells isolated from mouse femur; test: Peptide binding to bone marrow cells in culture (Avidin-FITC); set-up: key to Localization of peptide binding: Marrow (cells in culture): ✓: Check marks indicate positive binding observed with FITC; −: a dash indicates a negative result; conditions: for Localization of peptide binding: Marrow (cells in culture): FITC; for Binding to adherent cells from bone marrow blowouts: fibronectin-coated chamber slides, Avidin-FITC staining
Protocol: (§3) For localization of peptide binding to cells and tissue sections, biotinylated peptides were synthesized. Fluorescein-isothiocyanate (FITC) labeled Avidin was used to localize the peptides on cells in culture and in tissue sections in vitro by epiluminescence microscopy. In addition, the biotinylated peptides were detected at concentrations as low as 1 μM in slot blots.
as §2

[6] = tested on: human bone marrow endothelial cells (HBME); test: Peptide binding to HBME cells in culture (Avidin-FITC); set-up: key: ✓: Check marks indicate positive binding observed with FITC; −: a dash indicates a negative result
Protocol: as §3, §2

[7] = tested on: bone marrow derived mesenchymal stem cells; test: Microarray gene expression analysis of peptide-treated mesenchymal stem cells; assay type: cell-based; conditions: 100 μM/ml peptide, day 7, microarray
Protocol: For gene analysis, the bone marrow derived mesenchymal stem cells were seeded at 95,000 cells per well in a 6 well plate and maintained in culture media containing 100 μM/ml of each of the 13 peptides. The media were changed every three days. The cells were harvested at day 7, total RNA isolated using the Qiagen RNeasy kit and quantified with a spectrophotometer. After initial screening of the genes with real-time PCR, four peptides were chosen for microarray analysis: L13, L19, R1, and R3 (SEQ ID NOs: 8, 10, 11, and 13, respectively).

Row | Substance | Identification of binding partners by affinity chromatography: BAEC [1] | Identification of binding partners by affinity chromatography: HBME [2] | Binding to D1 cells [3] | Binding to cells from the skeleton in vitro [3] | Effect on CaP cell adhesion to BMEC [4] | Localization of peptide binding: Marrow (cells in culture) [5] | Binding to adherent cells from bone marrow blowouts [5] | also measured
1 | ASN-SER-MET-ILE-ALA-HIS-ASN-LYS-THR-ARG-MET-HIS-GLY-GLY-GLY-SER (NSMIAHNKTRMHGGGS; listed as Homo sapiens) [Peptide L7] | − | − |  |  |  |  |  | 
2 | ASN-TYR-SER-HIS-LEU-ARG-VAL-LYS-LEU-PRO-THR-PRO-GLY-GLY-GLY-SER (NYSHLRVKLPTPGGGS; listed as Homo sapiens) [Peptide R1] |  |  | bind to D1 cells | found to bind cells from the skeleton | did not show remarkable activity | ✓ | showed detectable binding | 
3 | SER-GLY-HIS-GLN-LEU-LEU-LEU-ASN-LYS-MET-PRO-ASN-GLY-GLY-GLY-SER (SGHQLLLNKMPNGGGS; listed as Homo sapiens) [Peptide L13] | − | ✓Nucleolin | bind to D1 cells | found to bind cells from the skeleton | consistent suppression of CaP cell invasion that was saturated at the doses tested; also recorded: inhibits CaP cell adhesion to bone marrow endothelial cells | ✓ | showed detectable binding | Concentrations at which peptide inhibits prostate cancer cell adhesion to BMEC ([4]; 50 μM and 100 μM tested): at both 50 μM and 100 μm; Binding partner from HBME / bone marrow endothelial cells ([2]; biotinylated peptide immobilized on avidin-agarose): nucleolin was the major component that binds; Localization of peptide binding: HBME [6]: ✓; Fold Change: Ameloblastin [7]: +3.73 fold; Fold Change: Cartilage link protein 1 [7]: +2.00 fold; Fold Change: Eph receptor A5 [7]: +4.92 fold; Fold Change: Fibronectin 1 [7]: −2.64 fold; Fold Change: Hypothetical protein MGC28705 [7]: +4.59 fold; Fold Change: Neural cell adhesion molecule 2 [7]: +6.96 fold; Fold Change: Procollagen, type I, alpha 1 [7]: +3.03 fold; Fold Change: RIKEN cDNA 2410129E14 gene [7]: +3.03 fold; Fold Change: Syndecan 4 [7]: +3.03 fold; Fold Change: Thyroid hormone receptor alpha [7]: −1.23 fold; Fold Change: v-raf-1 leukemia viral oncogene 1 [7]: +2.46 fold
